Results reported in patent US20200270309A1, “MALEIMIDE GROUP-MODIFIED ANGIOGENESIS INHIBITOR HM-1 AND USE THEREOF” (NANJING ANJI BIOLOGICAL TECHNOLOGY CO., LTD, priority 2017, published 2020).
Read-outs that look alike come from different tables or passages of the source. Peptide text beside a SMILES is read from it. * marks the point of attachment. MaleimidoPEG4propanoyl = O=C1C=CC(=O)N1CCOCCOCCOCCOCCC(=O)*; Hexanoyl(6-maleimido) = O=C1C=CC(=O)N1CCCCCC(=O)*; X23 = O=C1C=CC(=O)N1CCOCCOCCOCCOCCOCCOCCCCC(=O)*; Propanoyl(3-maleimido) = O=C1C=CC(=O)N1CCC(=O)*; X29 = O=C1C=CC(=O)N1CCOCCOCCOCCOCCOCCOCCCC(=O)*; X4 = O=C1C=CC(=O)N1CCOCCOCCOCCOCCCCCCCC(=O)*; X10 = O=C1C=CC(=O)N1CCOCCOCCOCCOCCCC(=O)*; X28 = O=C1C=CC(=O)N1CCOCCOCCOCCCCCCC(=O)*; X37 = O=C1C=CC(=O)N1c1ccc(CCCCCC(=O)*)cc1; X15 = O=C1C=CC(=O)N1CCOCCOCCOCCC(=O)*; X51 = O=C1C=CC(=O)N1c1ccccc1CC(=O)*; X13 = O=C1C=CC(=O)N1CCOCCCCCC(=O)*; X8 = O=C1C=CC(=O)N1CCOCCOCCCC(=O)*

Test: Half-lives and pharmacokinetic parameters of polypeptides vs HM-1
Design: AUC0-∞: concentration or dose not given beside the values
Settings: in vivo
[1] = read-out: T1/2β (half-life) (converted)

| Compound | AUC(0-inf) (read-out: AUC0-∞) | clearance (read-out: CL (converted)) | MRT inf (read-out: MRT0-∞) | half-life [1] | AUC(0-inf) | MRT inf | clearance | half-life (T1/2β (half-life)) | AUC0-∞ |
| --- | --- | --- | --- | --- | --- | --- | --- | --- | --- |
| C[C@H](NC(=O)[C@H](CCCNC(=N)N)NC(=O)[C@H](CC(=O)O)NC(=O)CNC(=O)[C@H](CCCNC(=N)N)NC(=O)CCCCCN1C(=O)C=CC1=O)C(=O)NCC(=O)NCC(=O)NCC(=O)NCC(=O)N[C@@H](CCCNC(=N)N)C(=O)NCC(=O)N[C@@H](CC(=O)O)C(=O)O [P8] ({Hexanoyl(6-maleimido)}-RGDRAGGGGRGD-OH; C-terminus assumed) | 31200 ± 8090 ng·h/mL | 0.535 mL/min/kg | 55.8 ± 13.4 h | 38.67 ± 0.27 h |  |  |  |  |  |
| C[C@H](NC(=O)CNC(=O)[C@H](CCCNC(=N)N)NC(=O)CCCCCOCCN1C(=O)C=CC1=O)C(=O)N[C@@H](CC(=O)O)C(=O)N[C@@H](CCCNC(=N)N)C(=O)N[C@@H](C)C(=O)NCC(=O)NCC(=O)NCC(=O)NCC(=O)N[C@@H](CCCNC(=N)N)C(=O)NCC(=O)N[C@@H](CC(=O)O)C(=O)O [X53] (X13-RGADRAGGGGRGD-OH) |  |  |  |  | 31100 ± 7940 ng·h/mL | 55.5 ± 12.4 h | 0.537 mL/min/kg | 38.47 ± 0.24 h |  |
| C[C@H](NC(=O)CNC(=O)[C@H](CCCNC(=N)N)NC(=O)Cc1ccccc1N1C(=O)C=CC1=O)C(=O)N[C@@H](CC(=O)O)C(=O)N[C@@H](CCCNC(=N)N)C(=O)N[C@@H](C)C(=O)NCC(=O)NCC(=O)NCC(=O)NCC(=O)N[C@@H](CCCNC(=N)N)C(=O)NCC(=O)N[C@@H](CC(=O)O)C(=O)O [X13] (X51-RGADRAGGGGRGD-OH) |  |  |  |  | 33600 ± 7340 ng·h/mL | 60 ± 12.5 h | 0.497 mL/min/kg | 41.58 ± 0.34 h |  |
| CC(C)[C@H](NC(=O)[C@H](C)NC(=O)CNC(=O)[C@H](CCCNC(=N)N)NC(=O)CCN1C(=O)C=CC1=O)C(=O)N[C@@H](CC(=O)O)C(=O)N[C@@H](CCCNC(=N)N)C(=O)N[C@@H](C)C(=O)NCC(=O)NCC(=O)NCC(=O)NCC(=O)N[C@@H](CCCNC(=N)N)C(=O)NCC(=O)N[C@@H](CC(=O)O)C(=O)O [P9] ({Propanoyl(3-maleimido)}-RGAVDRAGGGGRGD-OH; C-terminus assumed) | 27900 ± 6880 ng·h/mL | 0.597 mL/min/kg | 50 ± 10.7 h | 34.64 ± 0.3 h |  |  |  |  |  |
| C[C@H](NC(=O)CNC(=O)[C@H](CCCNC(=N)N)NC(=O)CCCOCCOCCN1C(=O)C=CC1=O)C(=O)N[C@@H](CC(=O)O)C(=O)N[C@@H](CCCNC(=N)N)C(=O)N[C@@H](C)C(=O)NCC(=O)NCC(=O)NCC(=O)NCC(=O)N[C@@H](CCCNC(=N)N)C(=O)NCC(=O)N[C@@H](CC(=O)O)C(=O)O [X58] (X8-RGADRAGGGGRGD-OH) |  |  |  |  | 26200 ± 7810 ng·h/mL | 47.9 ± 13.5 h | 0.635 mL/min/kg | 32.57 ± 0.28 h |  |
| C[C@H](NC(=O)CNC(=O)[C@H](CCCNC(=N)N)NC(=O)CCCCCN1C(=O)C=CC1=O)C(=O)N[C@@H](CC(=O)O)C(=O)N[C@@H](CCCNC(=N)N)C(=O)N[C@@H](C)C(=O)N[C@@H](CCC(=O)O)C(=O)N[C@@H](C)C(=O)N[C@@H](C)C(=O)N[C@@H](C)C(=O)N[C@@H](CCCCN)C(=O)N[C@@H](CCCNC(=N)N)C(=O)NCC(=O)N[C@@H](CC(=O)O)C(=O)O [P12] ({Hexanoyl(6-maleimido)}-RGADRAEAAAKRGD-OH; C-terminus assumed) | 34000 ± 6880 ng·h/mL | 0.49 mL/min/kg | 61 ± 10.1 h | 42.24 ± 0.29 h |  |  |  |  |  |
| C[C@H](NC(=O)CNC(=O)[C@H](CCCNC(=N)N)NC(=O)CCN1C(=O)C=CC1=O)C(=O)N[C@@H](CC(=O)O)C(=O)N[C@@H](CCCNC(=N)N)C(=O)N[C@@H](C)C(=O)NCC(=O)N[C@@H](CO)C(=O)N[C@@H](CO)C(=O)N[C@@H](CO)C(=O)N[C@@H](CO)C(=O)N[C@@H](CCCNC(=N)N)C(=O)NCC(=O)N[C@@H](CC(=O)O)C(=O)O [P13] ({Propanoyl(3-maleimido)}-RGADRAGSSSSRGD-OH; C-terminus assumed) | 31800 ± 8090 ng·h/mL | 0.525 mL/min/kg | 56.9 ± 14.2 h | 3944 ± 0.27 h |  |  |  |  |  |
| C[C@H](NC(=O)CNC(=O)[C@H](CCCNC(=N)N)NC(=O)CCOCCOCCOCCN1C(=O)C=CC1=O)C(=O)N[C@@H](CC(=O)O)C(=O)N[C@@H](CCCNC(=N)N)C(=O)N[C@@H](C)C(=O)NCC(=O)NCC(=O)NCC(=O)NCC(=O)N[C@@H](CCCNC(=N)N)C(=O)NCC(=O)N[C@@H](CC(=O)O)C(=O)O [X64] (X15-RGADRAGGGGRGD-OH) |  |  |  |  | 32300 ± 7250 ng·h/mL | 57.7 ± 13 h | 0.517 mL/min/kg | 39.97 ± 0.28 h |  |
| C[C@H](NC(=O)CNC(=O)[C@H](CCCNC(=N)N)NC(=O)CCCOCCOCCOCCOCCOCCOCCN1C(=O)C=CC1=O)C(=O)N[C@@H](CC(=O)O)C(=O)N[C@@H](CCCNC(=N)N)C(=O)N[C@@H](C)C(=O)NCC(=O)NCC(=O)NCC(=O)NCC(=O)N[C@@H](CCCNC(=N)N)C(=O)NCC(=O)N[C@@H](CC(=O)O)C(=O)O [X86] (X29-RGADRAGGGGRGD-OH) |  |  |  |  | 25800 ± 8050 ng·h/mL | 46.2 ± 10.2 h | 0.645 mL/min/kg | 32.03 ± 0.31 h |  |
| C[C@H](NC(=O)CNC(=O)[C@H](CCCNC(=N)N)NC(=O)CCOCCOCCOCCOCCN1C(=O)C=CC1=O)C(=O)N[C@@H](CC(=O)O)C(=O)N[C@@H](CCCNC(=N)N)C(=O)N[C@@H](C)C(=O)NCC(=O)NCC(=O)NCC(=O)NCC(=O)N[C@@H](CCCNC(=N)N)C(=O)NCC(=O)N[C@@H](CC(=O)O)C(=O)O [X71] (MaleimidoPEG4propanoyl-RGADRAGGGGRGD-OH) |  |  |  |  | 28300 ± 8140 ng·h/mL | 50.7 ± 13.4 h | 0.588 mL/min/kg | 35.13 ± 0.34 h |  |
| CC(C)[C@H](NC(=O)[C@H](C)NC(=O)CNC(=O)[C@H](CCCNC(=N)N)NC(=O)CCCCCN1C(=O)C=CC1=O)C(=O)N[C@@H](CC(=O)O)C(=O)N[C@@H](CCCNC(=N)N)C(=O)N[C@@H](C)C(=O)NCC(=O)NCC(=O)NCC(=O)NCC(=O)N[C@@H](CCCNC(=N)N)C(=O)NCC(=O)N[C@@H](CC(=O)O)C(=O)O [P10] ({Hexanoyl(6-maleimido)}-RGAVDRAGGGGRGD-OH; C-terminus assumed) | 24600 ± 7030 ng·h/mL | 0.677 mL/min/kg | 44.1 ± 11 h | 30.6 ± 0.31 h |  |  |  |  |  |
| C[C@H](NC(=O)CNC(=O)[C@H](CCCNC(=N)N)NC(=O)CCCCCc1ccc(N2C(=O)C=CC2=O)cc1)C(=O)N[C@@H](CC(=O)O)C(=O)N[C@@H](CCCNC(=N)N)C(=O)N[C@@H](C)C(=O)NCC(=O)NCC(=O)NCC(=O)NCC(=O)N[C@@H](CCCNC(=N)N)C(=O)NCC(=O)N[C@@H](CC(=O)O)C(=O)O [X41] (X37-RGADRAGGGGRGD-OH) |  |  |  |  | 26500 ± 7810 ng·h/mL | 47.5 ± 13.9 h | 0.628 mL/min/kg | 32.9 ± 0.36 h |  |
| C[C@H](NC(=O)CNC(=O)[C@H](CCCNC(=N)N)NC(=O)CCCCOCCOCCOCCOCCOCCOCCN1C(=O)C=CC1=O)C(=O)N[C@@H](CC(=O)O)C(=O)N[C@@H](CCCNC(=N)N)C(=O)N[C@@H](C)C(=O)NCC(=O)NCC(=O)NCC(=O)NCC(=O)N[C@@H](CCCNC(=N)N)C(=O)NCC(=O)N[C@@H](CC(=O)O)C(=O)O [X87] (X23-RGADRAGGGGRGD-OH) |  |  |  |  | 33400 ± 8450 ng·h/mL | 59.8 ± 10.6 h | 0.498 mL/min/kg | 41.42 ± 0.31 h |  |
| C[C@H](NC(=O)CNC(=O)[C@H](CCCNC(=N)N)NC(=O)CCCCCCOCCOCCOCCN1C(=O)C=CC1=O)C(=O)N[C@@H](CC(=O)O)C(=O)N[C@@H](CCCNC(=N)N)C(=O)N[C@@H](C)C(=O)NCC(=O)NCC(=O)NCC(=O)NCC(=O)N[C@@H](CCCNC(=N)N)C(=O)NCC(=O)N[C@@H](CC(=O)O)C(=O)O [X68] (X28-RGADRAGGGGRGD-OH) |  |  |  |  | 31800 ± 7920 ng·h/mL | 57 ± 10.3 h | 0.523 mL/min/kg | 39.52 ± 0.34 h |  |
| C[C@H](NC(=O)CNC(=O)[C@H](CCCNC(=N)N)NC(=O)CCCOCCOCCOCCOCCN1C(=O)C=CC1=O)C(=O)N[C@@H](CC(=O)O)C(=O)N[C@@H](CCCNC(=N)N)C(=O)N[C@@H](C)C(=O)NCC(=O)NCC(=O)NCC(=O)NCC(=O)N[C@@H](CCCNC(=N)N)C(=O)NCC(=O)N[C@@H](CC(=O)O)C(=O)O [X72] (X10-RGADRAGGGGRGD-OH) |  |  |  |  | 33800 ± 7140 ng·h/mL | 60.5 ± 12.3 h | 0.493 mL/min/kg | 41.92 ± 0.29 h |  |
| CC[C@H](C)[C@H](NC(=O)[C@H](Cc1c[nH]cn1)NC(=O)[C@H](CCC(N)=O)NC(=O)[C@H](CCCNC(=N)N)NC(=O)CCCCCN1C(=O)C=CC1=O)C(=O)N[C@@H](Cc1ccccc1)C(=O)N1CCC[C@H]1C(=O)N[C@@H](CO)C(=O)N[C@H](C(=O)N[C@@H](Cc1c[nH]c2ccccc12)C(=O)N[C@@H](Cc1ccccc1)C(=O)N[C@@H](Cc1c[nH]c2ccccc12)C(=O)N[C@@H](Cc1ccc(O)cc1)C(=O)N[C@@H](Cc1ccc(O)cc1)C(=O)N1CCC[C@H]1C(=O)N[C@@H](CC(=O)O)C(=O)N[C@@H](CCCNC(=N)N)C(=O)N[C@@H](CC(C)C)C(=O)N[C@@H](CCCCN)C(=O)N[C@@H](CCSC)C(=O)N[C@@H](CCCNC(=N)N)C(=O)N[C@@H](CCC(=O)O)C(=O)N[C@@H](CC(=O)O)C(=O)O)[C@@H](C)O [P4] ({Hexanoyl(6-maleimido)}-RQHIFPSTWFWYYPDRLKMRED-OH; C-terminus assumed) |  |  |  | 31.72 ± 0.26 h |  |  |  |  | 0.0391 ± 0.0066 mg/L/h |
| C[C@H](NC(=O)CNC(=O)[C@H](CCCNC(=N)N)NC(=O)CCCCCCCOCCOCCOCCOCCN1C(=O)C=CC1=O)C(=O)N[C@@H](CC(=O)O)C(=O)N[C@@H](CCCNC(=N)N)C(=O)N[C@@H](C)C(=O)NCC(=O)NCC(=O)NCC(=O)NCC(=O)N[C@@H](CCCNC(=N)N)C(=O)NCC(=O)N[C@@H](CC(=O)O)C(=O)O [X76] (X4-RGADRAGGGGRGD-OH) |  |  |  |  | 33900 ± 7640 ng·h/mL | 60.6 ± 10.5 h | 0.492 mL/min/kg | 42.01 ± 0.33 h |  |
